In US12077503B2, “Substituted cyclic amides and their use as herbicides” (FMC CORPORATION, priority 2015, dated 2024):

Experiments:
Assay type in all cases: in vivo
[1] = test system: Kochia (Kochia scoparia); assay: Test A preemergence; settings: Bassia scoparia, pre-emergence, 240 h, preemergence, 0 to 100 scale where 0 is no effect and 100 is complete control, read-out: Kochia plant response rating; for pest or weed control at 125 g/ha: 125 g ai/ha, visual injury rating, approximately 10 d; for pest or weed control at 500 g/ha: 500 g ai/ha
How it was run: (§1)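 Preemergence soil spray on seeded pots or post-emergence spray on 1–2 leaf plants, in loam–sand blend. Greenhouse ~10 d. Visual rating 0–100 against untreated plants.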

[2] = test system: ryegrass, Italian (Italian ryegrass, Lolium multiflorum); assay: Test A preemergence; settings: Lolium multiflorum, pre-emergence, 240 h, preemergence, 0 to 100 scale where 0 is no effect and 100 is complete control, read-out: Ryegrass, Italian plant response rating; for pest or weed control at 125 g/ha: 125 g ai/ha, visual injury rating, approximately 10 d; for pest or weed control at 500 g/ha: 500 g ai/ha
How it was run: as §1

[3] = test system: barnyardgrass (Echinochloa crus-galli); assay: Test A preemergence; settings: Echinochloa crus-galli, pre-emergence, 240 h, preemergence, 0 to 100 scale where 0 is no effect and 100 is complete control, read-out: Barnyardgrass plant response rating; for pest or weed control at 125 g/ha: 125 g ai/ha, visual injury rating, approximately 10 d; for pest or weed control at 500 g/ha: 500 g ai/ha
How it was run: as §1

[4] = test system: giant foxtail (Setaria faberii); assay: Test A preemergence; settings: Setaria faberi, pre-emergence, 240 h, preemergence, 0 to 100 scale where 0 is no effect and 100 is complete control, read-out: Foxtail, Giant plant response rating; for pest or weed control at 125 g/ha: 125 g ai/ha, visual injury rating, approximately 10 d; for pest or weed control at 500 g/ha: 500 g ai/ha
How it was run: as §1

[5] = test system: ragweed (common ragweed, Ambrosia elatior); assay: Test A preemergence; settings: Ambrosia artemisiifolia, pre-emergence, 240 h, preemergence, 0 to 100 scale where 0 is no effect and 100 is complete control, read-out: Ragweed plant response rating; for pest or weed control at 125 g/ha: 125 g ai/ha, visual injury rating, approximately 10 d; for pest or weed control at 500 g/ha: 500 g ai/ha
How it was run: as §1

[6] = test system: pigweed (Amaranthus retroflexus); assay: Test A preemergence; settings: Amaranthus retroflexus, pre-emergence, 240 h, preemergence, 0 to 100 scale where 0 is no effect and 100 is complete control, read-out: Pigweed plant response rating; for pest or weed control at 125 g/ha: 125 g ai/ha, visual injury rating, approximately 10 d; for pest or weed control at 500 g/ha: 500 g ai/ha
[7] = test system: ducksalad (Heteranthera limosa); assay: Test B flooded paddy test; settings: Heteranthera limosa, 250 g ai/ha, Flood; 0 to 100 scale where 0 is no effect and 100 is complete control; read-out: Ducksalad plant response rating
How it was run: (§2)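 Visual ratings (0 none to 100 complete control) are relative to untreated plants, taken 13–15 d after treatment in a greenhouse. Test material went straight into floodwater standing 3 cm above the soil, kept constant, on plants at the 2-leaf stage.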

[8] = test system: rice (Oryra sativa); assay: Test B flooded paddy test; settings: Oryza sativa, 250 g ai/ha, Flood; 0 to 100 scale where 0 is no effect and 100 is complete control; read-out: Rice plant response rating
How it was run: as §2

[9] = test system: barnyardgrass (Echinochloa crus-galli); assay: Test B flooded paddy test; settings: Echinochloa crus-galli, 250 g ai/ha, Flood; 0 to 100 scale where 0 is no effect and 100 is complete control; read-out: Barnyardgrass plant response rating
How it was run: as §2

[10] = test system: sedge, umbrella (small-flower umbrella sedge, Cyperus difformis); assay: Test B flooded paddy test; settings: Cyperus difformis, 250 g ai/ha, Flood; 0 to 100 scale where 0 is no effect and 100 is complete control; read-out: Sedge, Umbrella plant response rating
How it was run: as §2

[11] = test system: blackgrass (Alopecurus myosuroides); assay: Test A postemergence; settings: Alopecurus myosuroides, post-emergence, 240 h, postemergence; for pest or weed control at 125 g/ha: 125 g ai/ha, visual injury vs untreated controls after approx. 10 d, 0 = no effect, 100 = complete control, read-out: Blackgrass plant response rating (0 to 100 scale); for pest or weed control at 500 g/ha: 500 g ai/ha, 0 to 100 scale, 0 is no effect, 100 is complete control, read-out: Blackgrass plant response rating
How it was run: as §1

[12] = test system: Kochia (Kochia scoparia); assay: Test A postemergence; settings: Bassia scoparia, post-emergence, 240 h, postemergence; for pest or weed control at 125 g/ha: 125 g ai/ha, visual injury vs untreated controls after approx. 10 d, 0 = no effect, 100 = complete control, read-out: Kochia plant response rating (0 to 100 scale); for pest or weed control at 500 g/ha: 500 g ai/ha, 0 to 100 scale, 0 is no effect, 100 is complete control, read-out: Kochia plant response rating
How it was run: as §1

[13] = test system: barnyardgrass (Echinochloa crus-galli); assay: Test A postemergence; settings: Echinochloa crus-galli, post-emergence, 240 h, postemergence; for pest or weed control at 125 g/ha: 125 g ai/ha, visual injury vs untreated controls after approx. 10 d, 0 = no effect, 100 = complete control, read-out: Barnyardgrass plant response rating (0 to 100 scale); for pest or weed control at 500 g/ha: 500 g ai/ha, 0 to 100 scale, 0 is no effect, 100 is complete control, read-out: Barnyardgrass plant response rating
How it was run: as §1

[14] = test system: giant foxtail (Setaria faberii); assay: Test A postemergence; settings: Setaria faberi, post-emergence, 240 h, postemergence; for pest or weed control at 125 g/ha: 125 g ai/ha, visual injury vs untreated controls after approx. 10 d, 0 = no effect, 100 = complete control, read-out: Foxtail, Giant plant response rating (0 to 100 scale); for pest or weed control at 500 g/ha: 500 g ai/ha, 0 to 100 scale, 0 is no effect, 100 is complete control, read-out: Foxtail, Giant plant response rating
How it was run: as §1

[15] = test system: ragweed (common ragweed, Ambrosia elatior); assay: Test A postemergence; settings: Ambrosia artemisiifolia, post-emergence, 240 h, postemergence; for pest or weed control at 125 g/ha: 125 g ai/ha, visual injury vs untreated controls after approx. 10 d, 0 = no effect, 100 = complete control, read-out: Ragweed plant response rating (0 to 100 scale); for pest or weed control at 500 g/ha: 500 g ai/ha, 0 to 100 scale, 0 is no effect, 100 is complete control, read-out: Ragweed plant response rating
How it was run: as §1

Row | Compound | pest or weed control at 125 g/ha [1] | pest or weed control at 500 g/ha [1] | pest or weed control at 125 g/ha [2] | pest or weed control at 500 g/ha [2] | pest or weed control at 125 g/ha [3] | pest or weed control at 500 g/ha [3] | pest or weed control at 125 g/ha [4] | pest or weed control at 500 g/ha [4] | pest or weed control at 125 g/ha [5] | pest or weed control at 500 g/ha [5] | pest or weed control at 125 g/ha [6] | pest or weed control at 500 g/ha [6] | pest or weed control at 250 g/ha [7] | pest or weed control at 250 g/ha [8] | pest or weed control at 250 g/ha [9] | pest or weed control at 250 g/ha [10] | pest or weed control at 125 g/ha [11] | pest or weed control at 500 g/ha [11] | pest or weed control at 125 g/ha [12] | pest or weed control at 500 g/ha [12] | further results
1 | Cc1cc([C@H]2CN(C)C(=O)[C@@H]2C(=O)Nc2ccccc2F)no1 [Compound 1194] | 0% | 0% | 0% | 0% | 0% | 30% | 0% | 20% | 0% | 0% | 0% | 0% | 0% | 0% | 0% | 0% | 0% | 0% | 0% | 0% | pest or weed control at 125 g/ha [13]: 0%; pest or weed control at 500 g/ha [13]: 20%; pest or weed control at 125 g/ha [14]: 0%; pest or weed control at 500 g/ha [14]: 20%; pest or weed control at 125 g/ha [15]: 0%; pest or weed control at 500 g/ha [15]: 0%
2 | Cc1cc([C@H]2CN(C)C(=O)[C@@H]2C(=O)Nc2cccc(F)c2F)on1 [Compound 1196] | 0% | 0% | 0% | 0% | 50% | 90% | 70% | 90% | 0% | 0% | 0% | 0% | 30% | 0% | 0% | 0% | 0% | 0% | 0% | 0% | pest or weed control at 125 g/ha [13]: 70%; pest or weed control at 500 g/ha [13]: 90%; pest or weed control at 125 g/ha [14]: 30%; pest or weed control at 500 g/ha [14]: 80%; pest or weed control at 125 g/ha [15]: 0%; pest or weed control at 500 g/ha [15]: 0%
3 | N#Cc1cc([C@H]2CNC(=O)[C@@H]2C(=O)Nc2ccccc2F)ccc1F [Compound 1199] | 0% | 0% | 0% | 0% | 90% | 100% | 90% | 100% | 30% | 90% | 0% | 60% | 95% | 0% | 40% | 0% | 0% | 0% | 20% | 40% | pest or weed control at 125 g/ha [13]: 70%; pest or weed control at 500 g/ha [13]: 100%; pest or weed control at 125 g/ha [14]: 70%; pest or weed control at 500 g/ha [14]: 90%; pest or weed control at 125 g/ha [15]: 0%; pest or weed control at 500 g/ha [15]: 0%
4 | N#Cc1ccc([C@H]2CNC(=O)[C@@H]2C(=O)Nc2cccc(F)c2F)cc1 [Compound 1206] | 60% | 100% | 0% | 0% | 70% | 100% | 80% | 90% | 0% | 60% | 50% | 90% | 95% | 15% | 0% | 0% | 0% | 0% | 50% | 50% | pest or weed control at 125 g/ha [13]: 70%; pest or weed control at 500 g/ha [13]: 100%; pest or weed control at 125 g/ha [14]: 50%; pest or weed control at 500 g/ha [14]: 80%; pest or weed control at 125 g/ha [15]: 0%; pest or weed control at 500 g/ha [15]: 0%
5 | CN1CC[C@H](c2ccc(C(F)(F)F)cc2)[C@@H](C(=O)Nc2ccccc2C(F)(F)F)C1=O [Compound 1224] | 0% | 0% | 0% | 20% | 40% | 80% | 80% | 90% | 0% | 20% | 50% | 70% | 70% | 0% | 0% | 0% | 0% | 0% | 0% | 0% | pest or weed control at 125 g/ha [13]: 70%; pest or weed control at 500 g/ha [13]: 90%; pest or weed control at 125 g/ha [14]: 30%; pest or weed control at 500 g/ha [14]: 70%; pest or weed control at 125 g/ha [15]: 0%; pest or weed control at 500 g/ha [15]: 0%
